This passage reports Ki and IC50 results from patent US20120165319A1, “INHIBITORS OF INTERLEUKIN-1 BETA CONVERTING ENZYME” (VERTEX PHARMACEUTICALS INCORPORATED, priority 1995, published 2012).

The target in one assay is T1, ICE (Homo sapiens, UniProt P29466).
T1 sequence (P29466 120-297 limits assumed): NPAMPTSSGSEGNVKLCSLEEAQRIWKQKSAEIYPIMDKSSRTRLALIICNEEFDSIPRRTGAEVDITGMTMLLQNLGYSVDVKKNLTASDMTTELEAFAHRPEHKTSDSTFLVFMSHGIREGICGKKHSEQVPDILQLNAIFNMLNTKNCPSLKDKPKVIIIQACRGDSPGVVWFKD
T1 sequence (P29466 317-404 limits assumed): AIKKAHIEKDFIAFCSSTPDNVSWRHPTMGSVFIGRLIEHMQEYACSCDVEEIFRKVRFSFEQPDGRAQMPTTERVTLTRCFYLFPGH
The experiment in a line: Enzyme assay with UV-visible substrate (visible ICE assay, Succinyl-Tyr-Val-Ala-Asp-pNitroanilide). The assay is classed as biochemical. The conditions noted are these: Table 5. The protocol: 1. Enzyme Assay with Uv-Visible Substrate
This assay is run using an Succinyl-Tyr-Val-Ala-Asp-pNitroanilide substrate. Synthesis of analogous substrates is described by L. A. Reiter (Int. J. Peptide Protein Res. 12, 87-96 (1994)). The assay mixture contains:
The visible ICE assay is run in a 96-well microtiter plate. Buffer, ICE and DMSO (if inhibitor is present) are added to the wells in the order listed. The components are left to incubate at room temperature for 15 minutes starting at the time that all components are present in all wells. The microtiter plate reader is set to incubate at 37° C. After the 15 minute incubation, substrate is added directly to the wells and the reaction is monitored by following the release of the chromophore (pNA) at 405-603 nm at 37° C. for 20 minutes. A linear fit of the data is performed and the rate is calculated in mOD/min. DMSO is only present during experiments involving inhibitors, buffer is used to make up the volume to 100 μl in the other experiments.
For determination of enzyme inhibition constants (Ki) or the mode of inhibition (competitive, uncompetitive or noncompetitive), the rate data determined in the enzyme assays at varying inhibitor concentrations are computer-fit to standard enzyme kinetic equations (see I. H. Segel, Enzyme Kinetics, Wiley-Interscience, 1975).

The test system of assay [1] is IL-1β, human peripheral blood mononuclear cells (PBMC). The experiment in a line: PBMC cell assay: IL-1β assay with human PBMC or enriched adherent mononuclear cells, LPS-stimulated. Type of assay: cell-based. From the text: IL-1β Assay with a Mixed Population of Human Peripheral Blood Mononuclear Cells (PBMC) or Enriched Adherent Mononuclear Cells
Processing of pre-IL-1β by ICE can be measured in cell culture using a variety of cell sources. Human PBMC obtained from healthy donors provides a mixed population of lymphocyte subtypes and mononuclear cells that produce a spectrum of interleukins and cytokines in response to many classes of physiological stimulators. Adherent mononuclear cells from PBMC provides an enriched source of normal monocytes for selective studies of cytokine production by activated cells.
An initial dilution series of test compound in DMSO or ethanol is prepared, with a subsequent dilution into RPMI-10% FBS media (containing 2 mM L-glutamine, 10 mM HEPES, 50 U and 50 ug/ml pen/strep) respectively to yield drugs at 4× the final test concentration containing 0.4% DMSO or 0.4% ethanol. The final concentration of DMSO is 0.1% for all drug dilutions. A concentration titration which brackets the apparent Ki for a test compound determined in an ICE inhibition assay is generally used for the primary compound screen.
Generally 5-6 compound dilutions are tested and the cellular component of the assay is performed in duplicate, with duplicate ELISA determinations on each cell culture supernatant.
PBMC Isolation and IL-1 Assay:
Buffy coat cells isolated from one pint human blood (yielding 40-45 ml final volume plasma plus cells) are diluted with media to 80 ml and LeukoPREP separation tubes (Becton Dickinson) are each overlaid with 10 ml of cell suspension. After 15 min centrifugation at 1500-1800×g, the plasma/media layer is aspirated and then the mononuclear cell layer is collected with a Pasteur pipette and transferred to a 15 ml conical centrifuge tube (Corning). Media is added to bring the volume to 15 ml, gently mix the cells by inversion and centrifuge at 300×g for 15 min. Resuspend the PBMC pellet in a small volume of media, count cells and adjust to 6×10^6 cells/ml.
For the cellular assay, 1.0 ml of the cell suspension is added to each well of a 24-well flat bottom tissue culture plate (Corning), 0.5 ml test compound dilution and 0.5 ml LPS solution (Sigma #L-3012; 20 ng/ml solution prepared in complete RPMI media; final LPS concentration 5 ng/ml). The 0.5 ml additions of test compound and LPS are usually sufficient to mix the contents of the wells. Three control mixtures are run per experiment, with either LPS alone, solvent vehicle control, and/or additional media to adjust the final culture volume to 2.0 ml. The cell cultures are incubated for 16-18 hr at 37° C. in the presence of 5% CO2.
At the end of the incubation period, cells are harvested and transferred to 15 ml conical centrifuge tubes. After centrifugation for 10 min at 200×g, supernatants are harvested and transferred to 1.5 ml Eppendorf tubes. It may be noted that the cell pellet may be utilized for a biochemical evaluation of pre-IL-1β and/or mature IL-1β content in cytosol extracts by western blotting or ELISA with pre-IL-1β specific antisera.
Isolation of Adherent Mononuclear Cells:
PBMC are isolated and prepared as described above. Media (1.0 ml) is first added to wells followed by 0.5 ml of the PBMC suspension. After a one hour incubation, plates are gently shaken and nonadherent cells aspirated from each well. Wells are then gently washed three times with 1.0 ml of media and final resuspended in 1.0 ml media. The enrichment for adherent cells generally yields 2.5−3.0×10^5 cells per well. The addition of test compounds, LPS, cell incubation conditions and processing of supernatants proceeds as described above.
We have used Quantikine kits (R&D Systems) for measurement of mature IL-1β. Assays are performed according to the manufacturer's directions. Mature IL-1β levels of about 1-3 ng/ml in both PBMC and adherent mononuclear cell positive controls are observed. […]

The mark [2] stands for this setting: Homo sapiens, PBMC, * = values obtained upon reassay.
Setting [3] is: * = values obtained upon reassay.

Structures can show the parent of a compound that is named as a salt.

The compound `CC(=O)N[C@H]1CCC(=O)N2CCC[C@@H](C(=O)N[C@H](C=O)CC(=O)O)N2C1=O` [Compound 214c, [3S(1S,9S)]3-(9-Acetylamino-6,10-dioxo-1,2,3,4,7,8,9,10-octahydro-6H-pyridazino-[1,2-a][1,2]diazepine-1-carboxamido)-4-oxobutanoic acid] returned a Ki at ICE of 1200 nM. Also, the IC50 in assay [1] (setting [2]) came out at 5000 nM.
`O=C[C@H](CC(=O)O)NC(=O)[C@@H]1CCCN2C(=O)CC[C@H](NC(=O)c3cccnc3)C(=O)N12` [Compound 454] returned a Ki at ICE of 45 nM. The same compound came in with an IC50 in assay [1] (setting [2]) of 2500 nM.
As to `O=C[C@H](CC(=O)O)NC(=O)CN1C(=O)[C@@H](NC(=O)c2ccccc2)CN(C(=O)Cc2ccncc2)c2ccccc21` [Compound 605s, (3S)-3-[(3S)-2-Oxo-3-benzoylamino-5-(4-pyridylacetyl)-2,3,4,5-tetrahydro-1H-1,5-benzodiazepin-1-acetylamino]-4-oxo-butyric acid], the affinity at ICE corresponds to a Ki of 150 nM. Besides, in assay [1] (setting [2]), the IC50 stood at 6000 nM.
Turning to `COC(=O)Nc1ccc(C(=O)N[C@H]2CCC(=O)N3CCC[C@@H](C(=O)N[C@H](C=O)CC(=O)O)N3C2=O)cc1` [Compound 490], the Ki on ICE came out at 4.3 nM. The same compound gave an IC50 in assay [1] (setting [2]) of 1000 nM.
On the same counts, the results for `O=CC(CC(=O)O)NC(=O)CN1C(=O)[C@@H](NCc2ccccc2)CN(C(=O)CCc2ccccc2)c2ccccc21` (stereo partly drawn) [Compound 605v, (3S)3-[(3S)2-Oxo-3-benzylamino-5-(3-phenylpropionyl)-2,3,4,5-tetrahydro-1H-1,5-benzodiazepin-1-acetylamino]-4-oxo-butyric acid trifluoroacetic acid salt] are 1100 nM and above 30000 nM.
`O=C[C@H](CC(=O)O)NC(=O)[C@@H]1CCCN2C(=O)CC[C@H](NC(=O)C3CC3)C(=O)N12` [Compound 413]: the Ki on ICE is 750 nM. The compound further came in with a half-inhibitory concentration (IC50) in assay [1] (setting [2]) of 6200 nM.
At ICE, `O=C[C@H](CC(=O)O)NC(=O)[C@@H]1CCCN2C(=O)CC[C@H](NC(=O)c3cnc4ccccc4c3)C(=O)N12` [Compound 436] gave a Ki of 7.5 nM. The compound also gave an IC50 in assay [1] (setting [2]) of 2700 nM.
In the case of `O=C[C@H](CC(=O)O)NC(=O)[C@@H]1CCCN2C(=O)CC[C@H](NC(=O)c3ccc(F)c(Cl)c3)C(=O)N12` [Compound 459], at ICE, the affinity corresponds to a Ki of 5 nM. The compound also displayed an IC50 in assay [1] (setting [2]) of 1800 nM.
On ICE, `CC(=O)Nc1ccc(C(=O)N[C@H]2CCC(=O)N3CCC[C@@H](C(=O)N[C@H](C=O)CC(=O)O)N3C2=O)cc1NC(C)=O` [Compound 480] registered a Ki of 25 nM. In assay [1] (setting [2]), this compound registered an IC50 of 2300 nM.
On ICE, `CS(=O)(=O)N[C@H]1CCC(=O)N2CCC[C@@H](C(=O)N[C@@H](CC(=O)O)C(=O)c3ncc(-c4c(Cl)cccc4Cl)o3)N2C1=O` [Compound 220b, [3S(1S,9S)]-4-[5-(2,6-Dichlorophenyl)oxazol-2-yl]-3-(6,10-dioxo-9-methylsulphonylamino-1,2,3,4,7,8,9,10-octahydro-6H-pyridazino[1,2-a][1,2]diazepine-1-carboxamido)-4-oxobutanoic acid] came in with a Ki of 600 nM. Also, the IC50 in assay [1] (setting [2]) stood at 2120 nM.
`COC(=O)N[C@H]1CCC(=O)N2CCC[C@@H](C(=O)N[C@H](C=O)CC(=O)O)N2C1=O` [Compound 419] yielded a Ki at ICE of 280 nM. For the same compound, in assay [1] (setting [2]), the IC50 is above 8000 nM.
As for `CS(=O)(=O)N[C@H]1CCC(=O)N2CCC[C@@H](C(=O)N[C@@H](CC(=O)O)C(=O)CSc3nnnn3-c3ccccc3)N2C1=O` [Compound 280b, [3S(1S,9S)]3-(6,10-Dioxo-9-methanesulphonamido-1,2,3,4,7,8,9,10-octahydro-6H-pyridazino[1,2-a][1,2]diazepine-1-carboxamido)-4-oxo-5(1-phenyl-1H-tetrazole-5-thio)pentanoic acid], inhibition in assay [1] (Table 17) was half-maximal at 13000 nM (IC50).
In the case of `CS(=O)(=O)N1C[C@H](NC(=O)c2ccccc2)C(=O)N(CC(=O)N[C@H](C=O)CC(=O)O)c2ccccc21` [Compound 605m, (3S)-3-[(3S)-2-Oxo-3-benzoylamino-5-methanesulfonyl-2,3,4,5-tetrahydro-1H-1,5-benzodiazepin-1-acetylamino]-4-oxo-butyric acid], at ICE, affinity was put at a Ki of 650 nM. This compound also gave an IC50 in assay [1] (setting [2]) of 20000 nM.
At ICE, `CNC(=O)N[C@H]1CCC(=O)N2CCC[C@@H](C(=O)N[C@H](C=O)CC(=O)O)N2C1=O` [Compound 420] yielded a Ki of 1200 nM. Moreover, the IC50 is above 8000 nM in assay [1] (setting [3]) and 8000 nM in assay [1] (setting [2]).
Take `O=C[C@H](CC(=O)O)NC(=O)[C@@H]1CCCN2C(=O)CC[C@H](NC(=O)c3ccnc4ccccc34)C(=O)N12` [Compound 435]: the Ki on ICE turned out to be 8 nM. The same compound gave an IC50 in assay [1] (setting [2]) of 4400 nM.
The compound `O=C[C@H](CC(=O)O)NC(=O)[C@@H]1CCCN2C(=O)CC[C@H](NC(=O)c3ccc(F)cc3)C(=O)N12` [Compound 463] showed a Ki on ICE of 14 nM. Besides, the values for the IC50 in assay [1] (setting [3]) and in assay [1] (setting [2]) were 2800 nM and 2400 nM, respectively.
`CS(=O)(=O)N[C@H]1CCC(=O)N2CCC[C@@H](C(=O)N[C@@H](CC(=O)O)C(=O)COC(=O)c3ccccc3Oc3ccccc3)N2C1=O` [Compound 505c, [3S(1S,9S)]3-[6,10-Dioxo-9-(methanesulphonylamino)-1,2,3,4,7,8,9,10-octahydro-6H-pyridazino[1,2-a][1,2]diazepine-1-carboxamido]-4-oxo-5-(2-phenoxybenzoyloxy)pentanoic acid] yielded a half-inhibitory concentration (IC50) in assay [1] (Table 17) of 1500 nM.
In turn, `CS(=O)(=O)N[C@H]1CCC(=O)N2CCC[C@@H](C(=O)N[C@@H](CC(=O)O)C(=O)COc3nc4ccccn4c(=O)c3Cl)N2C1=O` [Compound 505f, [3S(1S,9S)]5-(3-Chloro-2-oxy-4H-pyrido[1,2-a]pyrimidin-4-one)-3-[6,10-dioxo-9-(methylsulphonyl)amino-1,2,3,4,7,8,9,10-octahydro-6H-pyridazino[1,2-a][1,2]diazepine-1-carboxamido]-4-oxopentanoic acid] had an IC50 in assay [1] (Table 17) of 550 nM.
As for `CS(=O)(=O)N[C@H]1CCC(=O)N2CCC[C@@H](C(=O)N[C@@H](CC(=O)O)C(=O)COC(=O)c3cccc(Oc4ccccc4)c3)N2C1=O` [Compound 505d, [3S(1S,9S)]3-[6,10-Dioxo-9-(methanesulphonylamino)-1,2,3,4,7,8,9,10-octahydro-6H-pyridazino[1,2-a][1,2]diazepine-1-carboxamido]-4-oxo-5-(3-phenoxybenzoyloxy)pentanoic acid], in assay [1] (Table 17), the IC50 is above 20000 nM.
